Reference: paper PMC3109436 (Journal of medicinal chemistry, 2009)
Several values for one entry are separate records, joined by “and”; a condition that tells them apart may be missing. Equal entries are not always repeated. Entries after “also recorded” stand apart in the source; their conditions may differ. Where two headings read alike, the source gives them in different places. Marks after values point to notes of the source that are not given here.

Columns and labels:
human A3AR [1] = target: T1, human A3AR (Homo sapiens, UniProt P0DMS8); test: Inhibition of forskolin-stimulated cAMP production; details: for agonist character at hA3AR in the adenylate cyclase (cAMP) assay: relative to full agonist 51
T1 sequence (P0DMS8 1-318): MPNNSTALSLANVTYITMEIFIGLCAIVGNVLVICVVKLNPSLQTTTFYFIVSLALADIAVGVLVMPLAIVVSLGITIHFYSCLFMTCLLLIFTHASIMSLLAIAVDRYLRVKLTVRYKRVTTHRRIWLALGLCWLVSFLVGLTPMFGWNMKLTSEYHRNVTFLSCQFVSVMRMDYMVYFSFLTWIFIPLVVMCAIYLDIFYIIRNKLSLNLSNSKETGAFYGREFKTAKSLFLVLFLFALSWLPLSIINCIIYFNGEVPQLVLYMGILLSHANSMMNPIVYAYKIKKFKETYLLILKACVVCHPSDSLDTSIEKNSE

[2] = target: T2, human A1 adenosine receptor (hA1AR) (Homo sapiens, UniProt P30542); test: Radioligand binding at human A1AR, membranes of CHO cells
T2 sequence (P30542 1-326): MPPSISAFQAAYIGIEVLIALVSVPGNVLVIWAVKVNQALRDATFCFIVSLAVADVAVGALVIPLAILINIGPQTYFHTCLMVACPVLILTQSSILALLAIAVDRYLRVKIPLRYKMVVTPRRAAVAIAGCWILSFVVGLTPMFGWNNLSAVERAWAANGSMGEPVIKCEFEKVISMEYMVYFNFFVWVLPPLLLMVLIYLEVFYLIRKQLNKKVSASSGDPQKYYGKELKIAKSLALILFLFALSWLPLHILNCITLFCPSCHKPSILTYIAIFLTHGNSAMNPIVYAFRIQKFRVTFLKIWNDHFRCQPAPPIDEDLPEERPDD

[3] = target: T3, human A3 adenosine receptor (hA3AR) (Homo sapiens, UniProt P0DMS8); test: Radioligand binding at human A3AR, membranes of CHO cells
T3 sequence (P0DMS8 1-318): T1 sequence (P0DMS8 1-318)

A3AR = details: at 10 μM, percentage of full effect induced by 10 μM 51; cited from earlier work
[4] = target: T4, human A2A adenosine receptor (hA2AAR) (Homo sapiens, UniProt P29274); details: cited from earlier work; for % inhibition of radioligand binding A2A: at 10 μM
T4 sequence (P29274 whole entry): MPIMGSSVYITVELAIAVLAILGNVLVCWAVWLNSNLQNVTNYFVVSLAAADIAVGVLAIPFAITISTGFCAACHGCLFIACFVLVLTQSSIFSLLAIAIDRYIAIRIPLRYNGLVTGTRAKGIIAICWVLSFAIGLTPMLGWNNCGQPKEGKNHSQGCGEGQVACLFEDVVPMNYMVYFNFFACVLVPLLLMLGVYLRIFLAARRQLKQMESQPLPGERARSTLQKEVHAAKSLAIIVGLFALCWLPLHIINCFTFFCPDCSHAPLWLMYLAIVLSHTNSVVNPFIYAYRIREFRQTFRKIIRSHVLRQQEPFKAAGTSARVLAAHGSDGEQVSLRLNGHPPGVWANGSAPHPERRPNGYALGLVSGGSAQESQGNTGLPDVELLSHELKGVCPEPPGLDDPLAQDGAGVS

[5] = target: T4, human A2A adenosine receptor (hA2AAR); test: Radioligand binding at human A2AAR, membranes of HEK293 cells
rA3AR = target: T5, rA3AR (Rattus norvegicus, UniProt P28647); test: Radioligand binding at rat A3AR
T5 sequence (P28647 1-320): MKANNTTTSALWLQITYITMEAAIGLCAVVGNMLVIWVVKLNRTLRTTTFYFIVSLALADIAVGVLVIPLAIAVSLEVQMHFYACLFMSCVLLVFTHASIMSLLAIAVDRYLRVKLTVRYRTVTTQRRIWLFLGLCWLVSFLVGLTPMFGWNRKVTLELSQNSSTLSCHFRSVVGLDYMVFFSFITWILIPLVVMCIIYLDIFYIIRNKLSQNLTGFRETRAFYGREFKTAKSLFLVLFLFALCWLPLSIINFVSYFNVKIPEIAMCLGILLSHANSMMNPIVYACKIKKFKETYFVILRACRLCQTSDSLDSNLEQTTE

human A3AR [6] = target: T1, human A3AR; details: at 10 μM, relative to 51 (= 100%); cited from earlier work

SMILES: CNC(=O)[C@]12C[C@@H]1[C@@H](n1cnc3c(NCc4cccc(Cl)c4)nc(C#CCCC(=O)NCCNC(=O)CCCC[C@H]4SC[C@H]5NC(=O)N[C@H]54)nc31)[C@H](O)[C@@H]2O [Compound 17a, (1′S,2′R,3′S,4′S,5′S)-4′-[6-(3-Chiorobenzylamino)-2-(N-biotinyl(β-aminoethylaminocarbonyl)-1-butynyl)-9-yl]-2′, 3′-dihydroxybicyclo[3.1.0]hexane-1′-carboxylic Acid N-Methylamide]
- EC50 (human A3AR [1]): 0.0025 ± 0.00042 µM

SMILES: O[C@@H]1[C@H](O)[C@@H]2C[C@@H]2[C@H]1n1cnc2c(NC3CCCC3)nc(Cl)nc21 [Compound 25]
- fold reduction of affinity at A1AR on loss of the 5′-N-methyluronamide group ([2]; 25 versus 4): 6 fold
- agonist character at hA3AR in the adenylate cyclase (cAMP) assay (human A3AR [1]): nearly full agonism; also recorded: full agonist
- fold reduction of affinity at A3AR on loss of the 5′-N-methyluronamide group ([3]; 25 versus 4): 32 fold

SMILES: O[C@@H]1[C@H](O)[C@@H]2C[C@@H]2[C@H]1n1cnc2c(NCc3cccc(Cl)c3)ncnc21 [Compound 22]
- agonist character at hA3AR in the adenylate cyclase (cAMP) assay (human A3AR [1]): partial

SMILES: O[C@@H]1[C@H](O)[C@@H]2C[C@@H]2[C@H]1n1cnc2c(NCc3cccc(Cl)c3)nc(Cl)nc21 [Compound 2a]
- % efficacy, A3 (stimulation of [35S]GTPγS binding) (A3AR): 2.9 ± 3.7 ^f %

SMILES: O[C@@H]1[C@H](O)[C@@H]2C[C@@H]2[C@H]1n1cnc2c(NCc3cccc(Br)c3)nc(Cl)nc21 [Compound 2b, (1R,2R,3S,4R,5S)-4-(6-(3-bromobenzylamino)-2-chloro-9H-purin-9-yl)bicyclo-[3.1.0]hexane-2,3-diol, reference compound]
- agonist character at hA3AR in the adenylate cyclase (cAMP) assay (human A3AR [1]): partial agonists

SMILES: CNC(=O)[C@@]12C[C@@H]1[C@@H](n1cnc3c(NCc4cccc(Cl)c4)nc(C#CCCCC(=O)O)nc31)[C@H](O)[C@@H]2O [Compound 6]
- % inhibition of radioligand binding A2A [4]: (43%)

SMILES: CNC(=O)[C@]12C[C@@H]1[C@@H](n1cnc3c(NCc4cccc(Cl)c4)nc(C#CCCCC(=O)NCCN)nc31)[C@H](O)[C@@H]2O [Compound 12]
- % inhibition of radioligand binding A2A [4]: (81%)

SMILES: O[C@@H]1[C@H](O)[C@@H]2C[C@@H]2[C@H]1n1cnc2c(NCc3cccc(I)c3)nc(Cl)nc21 [Compound 2c, reference compound]
- agonist character at hA3AR in the adenylate cyclase (cAMP) assay (human A3AR [1]): partial agonists
- % efficacy, A3 (stimulation of [35S]GTPγS binding) (A3AR): 1.0 ± 3.2%

SMILES: CCN1C(=CC=CC=CC2=[N+](CCCCCC(=O)NCCNC(=O)CCC#Cc3nc(NCc4cccc(Cl)c4)c4ncn(C5C(O)C(O)C6(C(=O)NC)CC56)c4n3)c3ccc(S(=O)(=O)O)cc3C2(C)C)C(C)(C)c2cc(S(=O)(=O)[O-])ccc21 (stereo not drawn) [Compound 18, (1′S,2′R,3′S,4′S,5′S)-4′-[6-(3-Chlorobenzylamino)-2-(N-cyaiune(β-aminoethylaminocarbonyl)-1-butynyl)-9-yl]-2′,3′-dihydroxybicyclo[3.1.0]hexane-1′-carboxylic Acid N-Methylamide]
- Ki [5]: 4.73 ± 1.02 µM
- inhibition at 10 µM ([2]; read-out: % inhibition of radioligand binding A1): 36%
- agonist character at hA3AR in the adenylate cyclase (cAMP) assay (human A3AR [1]): full agonist
- Ki (rA3AR): 0.00962 µM and 0.0096 µM

SMILES: CNC(=O)[C@@]12C[C@@H]1[C@@H](n1cnc3c(NCc4cccc(I)c4)nc(Cl)nc31)[C@H](O)[C@@H]2O [Compound 1b, reference compound]
- Ki ([4]; read-out: affinity (Ki) A2A, HEK293 cells expressing hA2AAR): 0.784 ± 0.097 µM
- % efficacy, A3 (inhibition of forskolin-stimulated cAMP production) (human A3AR [6]): 100 ^c %

SMILES: O[C@@H]1[C@H](O)[C@@H]2C[C@@H]2[C@H]1n1cnc2c(NCc3cccc(I)c3)ncnc21 [Compound 23, (1′R,2′R,3′S,4′ S,5′ S)-4′-[6-(3-Iodobenzylamino)purine]-2′,3′-dihydroxybicyclo[3.1.0]hexane]
- Ki [5]: 2.33 ± 0.68 µM
- agonist character at hA3AR in the adenylate cyclase (cAMP) assay (human A3AR [1]): nearly full agonism
- Ki [3]: 0.011 ± 0.0022 µM

SMILES: CNC(=O)[C@]12C[C@@H]1[C@@H](n1cnc3c(NCc4cccc(Cl)c4)nc(C#CCCCC(=O)OC)nc31)[C@H](O)[C@@H]2O [Compound 9]
- % inhibition of radioligand binding A2A [4]: (49%)
